Laboratory results reported in PubChem BioAssay (NCI).
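Values below derive from 48-hour exposures of cells grown in 96-well plates, with endpoints linearly interpolated between the two concentrations bracketing the appropriate inhibition level. TGI marks complete inhibition of growth.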

How the values were obtained:
Test in all cases: NCI tumour cell line growth inhibition, 48 h
RXF 393 renal = test system: RXF 393 renal
IGROV1 ovarian = test system: IGROV1 ovarian
TK-10 renal = test system: TK-10 renal
CCRF-CEM leukemia = test system: CCRF-CEM leukemia
PC-3 prostate = test system: PC-3 prostate
OVCAR-4 ovarian = test system: OVCAR-4 ovarian
OVCAR-3 ovarian = test system: OVCAR-3 ovarian
MOLT-4 leukemia = test system: MOLT-4 leukemia
HOP-92 NSCLC = test system: HOP-92 NSCLC
DU-145 prostate = test system: DU-145 prostate
U251 CNS = test system: U251 CNS
MDA-MB-435 = test system: MDA-MB-435
A549 NSCLC = test system: A549 NSCLC
SN12C renal = test system: SN12C renal
UACC-62 melanoma = test system: UACC-62 melanoma
EKVX NSCLC = test system: EKVX NSCLC
SNB-19 CNS = test system: SNB-19 CNS
HL-60(TB) leukemia = test system: HL-60(TB) leukemia
UACC-257 melanoma = test system: UACC-257 melanoma
MCF7 breast = test system: MCF7 breast
RPMI-8226 leukemia = test system: RPMI-8226 leukemia
MDA-MB-231 breast = test system: MDA-MB-231 breast
BT-549 breast = test system: BT-549 breast
A498 renal = test system: A498 renal
SW-620 colon = test system: SW-620 colon
SF-539 CNS = test system: SF-539 CNS
LOX IMVI melanoma = test system: LOX IMVI melanoma
NCI-H23 lung = test system: NCI-H23 lung
HS 578T breast = test system: HS 578T breast
MDA-N = test system: MDA-N
OVCAR-8 ovarian = test system: OVCAR-8 ovarian
HCC-2998 colon = test system: HCC-2998 colon
M14 melanoma = test system: M14 melanoma
CAKI-1 renal = test system: CAKI-1 renal
SF-295 CNS = test system: SF-295 CNS
SK-MEL-28 melanoma = test system: SK-MEL-28 melanoma
NCI-H522 lung = test system: NCI-H522 lung
ACHN renal = test system: ACHN renal
SR leukemia = test system: SR leukemia
SF-268 CNS = test system: SF-268 CNS
K-562 leukemia = test system: K-562 leukemia
HOP-62 NSCLC = test system: HOP-62 NSCLC
OVCAR-5 ovarian = test system: OVCAR-5 ovarian
NCI/ADR-RES ovarian = test system: NCI/ADR-RES ovarian
SK-MEL-2 melanoma = test system: SK-MEL-2 melanoma
COLO 205 colon = test system: COLO 205 colon
NCI-H460 lung = test system: NCI-H460 lung
SNB-75 CNS = test system: SNB-75 CNS
UO-31 renal = test system: UO-31 renal
HT29 colon = test system: HT29 colon
NCI-H226 lung = test system: NCI-H226 lung
SK-MEL-5 melanoma = test system: SK-MEL-5 melanoma
786-0 renal = test system: 786-0 renal
T-47D breast = test system: T-47D breast
SK-OV-3 ovarian = test system: SK-OV-3 ovarian
KM12 colon = test system: KM12 colon
HCT-15 colon = test system: HCT-15 colon
HCT-116 colon = test system: HCT-116 colon

Compound `CCc1nc(N)nc(N)c1-c1ccc(Cc2ccccc2)c([N+](=O)[O-])c1` has a TGI (RXF 393 renal) of over 84.3 µM, a TGI (IGROV1 ovarian) of over 64.2 µM and a TGI (TK-10 renal) of over 71.4 µM. It also gave a TGI (CCRF-CEM leukemia) of over 62 µM, a TGI (PC-3 prostate) of over 100 µM and a TGI (OVCAR-4 ovarian) of over 93.3 µM. For the same compound, the TGI (OVCAR-3 ovarian) was over 76 µM, the TGI (MOLT-4 leukemia) was over 63.1 µM and the TGI (HOP-92 NSCLC) was over 59.3 µM. The TGI (DU-145 prostate) was over 76.3 µM, the TGI (U251 CNS) was over 65.5 µM and the TGI (MDA-MB-435) was over 100 µM. For the same compound, the TGI (A549 NSCLC) was over 70.7 µM, the TGI (SN12C renal) was over 100 µM and the TGI (UACC-62 melanoma) was over 65.6 µM. It also gave a TGI (EKVX NSCLC) of over 58.8 µM, a TGI (SNB-19 CNS) of over 100 µM and a TGI (HL-60(TB) leukemia) of over 53.4 µM. It also gave a TGI (UACC-257 melanoma) of over 71 µM, a TGI (MCF7 breast) of over 65.1 µM and a TGI (RPMI-8226 leukemia) of over 54.3 µM. The TGI (MDA-MB-231 breast) was over 70.8 µM, the TGI (BT-549 breast) was over 65.8 µM and the TGI (A498 renal) was over 74.2 µM. It also gave a TGI (SW-620 colon) of over 64.2 µM, a TGI (SF-539 CNS) of over 62.4 µM and a TGI (LOX IMVI melanoma) of over 80.9 µM. For the same compound, the TGI (NCI-H23 lung) was over 60.4 µM, the TGI (HS 578T breast) was over 67.1 µM and the TGI (MDA-N) was over 81.8 µM. For the same compound, the TGI (OVCAR-8 ovarian) was over 62.1 µM, the TGI (HCC-2998 colon) was over 64.6 µM and the TGI (M14 melanoma) was over 84.9 µM. For the same compound, the TGI (CAKI-1 renal) was over 100 µM, the TGI (SF-295 CNS) was over 65.5 µM and the TGI (SK-MEL-28 melanoma) was over 100 µM. It also gave a TGI (NCI-H522 lung) of over 35.8 µM, a TGI (ACHN renal) of over 61.2 µM and a TGI (SR leukemia) of 6.11 µM. The TGI (SF-268 CNS) was over 56.2 µM, the TGI (K-562 leukemia) was over 59.5 µM and the TGI (HOP-62 NSCLC) was over 69.7 µM. The TGI (OVCAR-5 ovarian) was over 100 µM, the TGI (NCI/ADR-RES ovarian) was over 62.8 µM and the TGI (SK-MEL-2 melanoma) was over 100 µM. It also gave a TGI (COLO 205 colon) of over 65.4 µM, a TGI (NCI-H460 lung) of over 60.8 µM and a TGI (SNB-75 CNS) of over 60 µM. It also gave a TGI (UO-31 renal) of over 54.5 µM, a TGI (HT29 colon) of over 61.5 µM and a TGI (NCI-H226 lung) of over 68.9 µM. For the same compound, the TGI (SK-MEL-5 melanoma) was over 100 µM, the TGI (786-0 renal) was over 60.7 µM and the TGI (T-47D breast) was over 85.4 µM. It also gave a TGI (SK-OV-3 ovarian) of over 83.6 µM, a TGI (KM12 colon) of over 62.4 µM and a TGI (HCT-15 colon) of over 59.7 µM. It also gave a TGI (HCT-116 colon) of over 61.1 µM.

In the case of `COC(=O)C(CCC1CC(OC)N(C(=O)OCc2ccccc2)C1)N=Cc1ccccc1` (stereo not given), the TGI (RXF 393 renal) is reported as over 100 µM, the TGI (IGROV1 ovarian) is reported as over 100 µM and the TGI (TK-10 renal) is reported as over 100 µM. It also gave a TGI (CCRF-CEM leukemia) of over 100 µM, a TGI (PC-3 prostate) of over 100 µM and a TGI (OVCAR-4 ovarian) of over 100 µM. The TGI (OVCAR-3 ovarian) was over 100 µM, the TGI (MOLT-4 leukemia) was over 100 µM and the TGI (HOP-92 NSCLC) was over 100 µM. The TGI (DU-145 prostate) was over 100 µM, the TGI (U251 CNS) was over 100 µM and the TGI (MDA-MB-435) was over 100 µM. It also gave a TGI (A549 NSCLC) of over 100 µM, a TGI (SN12C renal) of over 100 µM and a TGI (UACC-62 melanoma) of over 100 µM. The TGI (EKVX NSCLC) was over 100 µM, the TGI (SNB-19 CNS) was over 100 µM and the TGI (HL-60(TB) leukemia) was over 100 µM. The TGI (UACC-257 melanoma) was over 100 µM, the TGI (MCF7 breast) was over 100 µM and the TGI (RPMI-8226 leukemia) was 91.7 µM. For the same compound, the TGI (MDA-MB-231 breast) was over 100 µM, the TGI (BT-549 breast) was over 100 µM and the TGI (A498 renal) was over 100 µM. For the same compound, the TGI (SW-620 colon) was over 100 µM, the TGI (SF-539 CNS) was over 100 µM and the TGI (LOX IMVI melanoma) was over 100 µM. The TGI (NCI-H23 lung) was over 100 µM, the TGI (HS 578T breast) was over 100 µM and the TGI (MDA-N) was over 100 µM. The TGI (OVCAR-8 ovarian) was over 100 µM, the TGI (HCC-2998 colon) was over 100 µM and the TGI (M14 melanoma) was over 100 µM. The TGI (CAKI-1 renal) was over 100 µM, the TGI (SF-295 CNS) was over 100 µM and the TGI (SK-MEL-28 melanoma) was over 100 µM. It also gave a TGI (NCI-H522 lung) of 72.9 µM, a TGI (ACHN renal) of over 100 µM and a TGI (SR leukemia) of over 100 µM. It also gave a TGI (SF-268 CNS) of over 100 µM, a TGI (K-562 leukemia) of over 100 µM and a TGI (HOP-62 NSCLC) of over 100 µM. The TGI (OVCAR-5 ovarian) was over 100 µM, the TGI (NCI/ADR-RES ovarian) was over 100 µM and the TGI (SK-MEL-2 melanoma) was 78.8 µM. The TGI (COLO 205 colon) was 78.7 µM, the TGI (NCI-H460 lung) was over 100 µM and the TGI (SNB-75 CNS) was over 100 µM. For the same compound, the TGI (UO-31 renal) was over 100 µM, the TGI (HT29 colon) was over 100 µM and the TGI (NCI-H226 lung) was over 100 µM. The TGI (SK-MEL-5 melanoma) was 83.9 µM, the TGI (786-0 renal) was over 100 µM and the TGI (T-47D breast) was over 100 µM. It also gave a TGI (SK-OV-3 ovarian) of over 100 µM, a TGI (KM12 colon) of over 100 µM and a TGI (HCT-15 colon) of over 100 µM. The TGI (HCT-116 colon) was over 100 µM.

With `COc1cc(CCCl)c(CC2=NCCc3cc(OC)c(OC)cc32)cc1OC` the TGI (RXF 393 renal) was over 100 µM, the TGI (IGROV1 ovarian) was over 100 µM and the TGI (TK-10 renal) was over 100 µM. For the same compound, the TGI (CCRF-CEM leukemia) was over 100 µM, the TGI (PC-3 prostate) was over 100 µM and the TGI (OVCAR-4 ovarian) was over 100 µM. It also gave a TGI (OVCAR-3 ovarian) of over 100 µM, a TGI (MOLT-4 leukemia) of over 100 µM and a TGI (HOP-92 NSCLC) of over 100 µM. For the same compound, the TGI (DU-145 prostate) was over 100 µM, the TGI (U251 CNS) was over 100 µM and the TGI (MDA-MB-435) was over 100 µM. For the same compound, the TGI (A549 NSCLC) was over 100 µM, the TGI (SN12C renal) was over 100 µM and the TGI (UACC-62 melanoma) was over 100 µM. The TGI (EKVX NSCLC) was over 100 µM, the TGI (SNB-19 CNS) was over 100 µM and the TGI (HL-60(TB) leukemia) was over 100 µM. The TGI (UACC-257 melanoma) was over 100 µM, the TGI (MCF7 breast) was over 100 µM and the TGI (RPMI-8226 leukemia) was over 100 µM. It also gave a TGI (MDA-MB-231 breast) of over 100 µM, a TGI (BT-549 breast) of over 100 µM and a TGI (SW-620 colon) of over 100 µM. The TGI (SF-539 CNS) was 57.7 µM, the TGI (LOX IMVI melanoma) was over 100 µM and the TGI (NCI-H23 lung) was over 100 µM. For the same compound, the TGI (HS 578T breast) was 80.7 µM, the TGI (MDA-N) was over 100 µM and the TGI (OVCAR-8 ovarian) was over 100 µM. For the same compound, the TGI (HCC-2998 colon) was over 100 µM, the TGI (M14 melanoma) was over 100 µM and the TGI (CAKI-1 renal) was over 100 µM. For the same compound, the TGI (SF-295 CNS) was over 100 µM, the TGI (SK-MEL-28 melanoma) was over 100 µM and the TGI (ACHN renal) was over 100 µM. For the same compound, the TGI (SR leukemia) was over 100 µM, the TGI (SF-268 CNS) was over 100 µM and the TGI (K-562 leukemia) was over 100 µM. The TGI (HOP-62 NSCLC) was over 100 µM, the TGI (OVCAR-5 ovarian) was over 100 µM and the TGI (NCI/ADR-RES ovarian) was over 100 µM. For the same compound, the TGI (SK-MEL-2 melanoma) was over 100 µM, the TGI (COLO 205 colon) was over 100 µM and the TGI (NCI-H460 lung) was over 100 µM. The TGI (SNB-75 CNS) was over 100 µM, the TGI (UO-31 renal) was over 100 µM and the TGI (HT29 colon) was over 100 µM. It also gave a TGI (NCI-H226 lung) of over 100 µM, a TGI (SK-MEL-5 melanoma) of over 100 µM and a TGI (T-47D breast) of over 100 µM. The TGI (SK-OV-3 ovarian) was over 100 µM, the TGI (KM12 colon) was over 100 µM and the TGI (HCT-116 colon) was over 100 µM.
